System: MV-4-11 cells
Test: Gene expression microarray analysis (Affymetrix PrimeView) and GSEA
Assay type: cell-based, human
Parameters: RFU PODN (11730768_x_at) / Fold change /veh PODN (11730768_x_at) / RFU LINC00158 (11744669_a_at) / Fold change /veh LINC00158 (11744669_a_at) / RFU DUSP10 (11751237_a_at) / Fold change /veh DUSP10 (11751237_a_at) / RFU ID3 (11757404_x_at) / Fold change /veh ID3 (11757404_x_at) / RFU PLEKHG5 (11737974_s_at) / Fold change /veh PLEKHG5 (11737974_s_at) / RFU LRRC4B (11730491_at) / Fold change /veh LRRC4B (11730491_at) / RFU GIMAP4 (11747438_a_at) / Fold change /veh GIMAP4 (11747438_a_at) / RFU KRT8 (11758183_x_at) / Fold change /veh KRT8 (11758183_x_at) / RFU CNN1 (11734310_a_at) / Fold change /veh CNN1 (11734310_a_at) / RFU VPS37D (11726825_at) / Fold change /veh VPS37D (11726825_at) / RFU C10orf10 (11716522_x_at) / Fold change /veh C10orf10 (11716522_x_at) / RFU KIR2DL2 /// KIR2DL4 /// KIR2DL5A /// KIR2DL5B /// KIR2DS1 /// KIR2DS2 /// KIR2DS3 /// KIR2DS4 /// KIR3DL3 /// KIR3DL3 /// KIR3DS1 (11738374_at) / Fold change /veh KIR2DL2 /// KIR2DL4 /// KIR2DL5A /// KIR2DL5B /// KIR2DS1 /// KIR2DS2 /// KIR2DS3 /// KIR2DS4 /// KIR3DL3 /// KIR3DL3 /// KIR3DS1 (11738374_at) / RFU C1QL1 (11718748_at) / Fold change /veh C1QL1 (11718748_at) / RFU TMPRSS4 (11747572_a_at) / Fold change /veh TMPRSS4 (11747572_a_at) / RFU HAMP (11756126_x_at) / Fold change /veh HAMP (11756126_x_at) / RFU RNFT2 (11725882_a_at) / Fold change /veh RNFT2 (11725882_a_at) / RFU NR4A2 (11747474_a_at) / Fold change /veh NR4A2 (11747474_a_at) / RFU ABCC12 (11746883_a_at) / Fold change /veh ABCC12 (11746883_a_at) / RFU TMEM136 (11760407_x_at) / Fold change /veh TMEM136 (11760407_x_at) / RFU CLDN22 /// WWC2 (11732394_at) / Fold change /veh CLDN22 /// WWC2 (11732394_at) / RFU HLA-DPB1 (11760878_x_at) / Fold change /veh HLA-DPB1 (11760878_x_at) / RFU SPINT1 (11716480_a_at) / Fold change /veh SPINT1 (11716480_a_at) / RFU GAP43 (11754022_s_at) / Fold change /veh GAP43 (11754022_s_at) / RFU A4GNT (11735810_at) / Fold change /veh A4GNT (11735810_at) / RFU PRB3 (11715151_x_at) / Fold change /veh PRB3 (11715151_x_at) / RFU TUBB4B (11761932_at) / Fold change /veh TUBB4B (11761932_at) / RFU CAPN14 (11732068_a_at) / Fold change /veh CAPN14 (11732068_a_at) / RFU TMCC2 (11721928_a_at) / Fold change /veh TMCC2 (11721928_a_at) / RFU IRGQ (11745062_a_at) / Fold change /veh IRGQ (11745062_a_at) / RFU FAM174B (11720279_a_at) / Fold change /veh FAM174B (11720279_a_at) / RFU TMPRSS4 (11748680_a_at) / Fold change /veh TMPRSS4 (11748680_a_at) / RFU FAM212B (11763350_a_at) / Fold change /veh FAM212B (11763350_a_at) / RFU PLEKHG5 (11743358_a_at) / Fold change /veh PLEKHG5 (11743358_a_at) / RFU ZSCAN30 (11745921_a_at) / Fold change /veh ZSCAN30 (11745921_a_at) / RFU CMKLR1 (11741424_a_at) / Fold change /veh CMKLR1 (11741424_a_at) / RFU LOC101060620 /// MAPK8IP1 (11723275_at) / Fold change /veh LOC101060620 /// MAPK8IP1 (11723275_at) / RFU SPTSSB (11747773_x_at) / Fold change /veh SPTSSB (11747773_x_at) / RFU PRSS12 (11739890_at) / Fold change /veh PRSS12 (11739890_at) / RFU BIN1 (11741810_x_at) / Fold change /veh BIN1 (11741810_x_at) / RFU WNT11 (11732464_a_at) / Fold change /veh WNT11 (11732464_a_at) / RFU C10orf10 (11716521_a_at) / Fold change /veh C10orf10 (11716521_a_at) / RFU C5orf56 (11738089_at) / Fold change /veh C5orf56 (11738089_at) / RFU CYB561 (11721691_x_at) / Fold change /veh CYB561 (11721691_x_at) / RFU ANKRD19P (11752326_a_at) / Fold change /veh ANKRD19P (11752326_a_at) / RFU OR2T12 /// OR2T33 /// OR2T8 (11738714_s_at) / Fold change /veh OR2T12 /// OR2T33 /// OR2T8 (11738714_s_at) / RFU VCAN (11748164_a_at) / Fold change /veh VCAN (11748164_a_at) / RFU JSRP1 (11732532_at) / Fold change /veh JSRP1 (11732532_at) / RFU KRTAP10-11 (11738290_x_at) / Fold change /veh KRTAP10-11 (11738290_x_at) / RFU MYO3A (11730013_a_at) / Fold change /veh MYO3A (11730013_a_at) / RFU EBF3 (11725865_a_at) / Fold change /veh EBF3 (11725865_a_at) / RFU CAMK2N1 (11719241_x_at) / Fold change /veh CAMK2N1 (11719241_x_at) / RFU C5orf56 (11738088_a_at) / Fold change /veh C5orf56 (11738088_a_at) / RFU OLFML3 (11715873_a_at) / Fold change /veh OLFML3 (11715873_a_at) / RFU LOC100653217 /// NTM (11731650_a_at) / Fold change /veh LOC100653217 /// NTM (11731650_a_at) / RFU MAPK11 (11762145_a_at) / Fold change /veh MAPK11 (11762145_a_at) / RFU FIZ1 (11724087_x_at) / Fold change /veh FIZ1 (11724087_x_at) / RFU OASL (11726364_x_at) / Fold change /veh OASL (11726364_x_at) / RFU SOX15 (11748057_x_at) / Fold change /veh SOX15 (11748057_x_at) / RFU CD79A (11719716_a_at) / Fold change /veh CD79A (11719716_a_at) / RFU HIST1H1D (11736915_at) / Fold change /veh HIST1H1D (11736915_at) / RFU CASKIN2 (11723855_a_at) / Fold change /veh CASKIN2 (11723855_a_at) / RFU LOC730098 (11760151_x_at) / Fold change /veh LOC730098 (11760151_x_at) / RFU OR4N2 (11742367_at) / Fold change /veh OR4N2 (11742367_at) / RFU PRRT2 (11749266_a_at) / Fold change /veh PRRT2 (11749266_a_at) / RFU SNX32 (11753110_a_at) / Fold change /veh SNX32 (11753110_a_at) / RFU CDHR5 (11726645_a_at) / Fold change /veh CDHR5 (11726645_a_at) / RFU RCAN1 (11760418_a_at) / Fold change /veh RCAN1 (11760418_a_at) / RFU FAM167A (11723789_a_at) / Fold change /veh FAM167A (11723789_a_at) / RFU FAM26E (11764081_at) / Fold change /veh FAM26E (11764081_at) / RFU ISYNA1 (11749810_s_at) / Fold change /veh ISYNA1 (11749810_s_at) / RFU ACY1 (11761880_at) / Fold change /veh ACY1 (11761880_at) / RFU 11764098_at / Fold change /veh 11764098_at / RFU SAMD14 (11745864_x_at) / Fold change /veh SAMD14 (11745864_x_at) / RFU NPB (11741838_a_at) / Fold change /veh NPB (11741838_a_at) / RFU TMPRSS6 (11731388_a_at) / Fold change /veh TMPRSS6 (11731388_a_at) / RFU KRTAP10-2 (11738614_at) / Fold change /veh KRTAP10-2 (11738614_at) / RFU ARHGAP8 /// PRR5-ARHGAP8 (11727945_x_at) / Fold change /veh ARHGAP8 /// PRR5-ARHGAP8 (11727945_x_at) / RFU KRTAP5-7 /// NADSYN1 (11734609_at) / Fold change /veh KRTAP5-7 /// NADSYN1 (11734609_at) / RFU RASL12 (11751679_a_at) / Fold change /veh RASL12 (11751679_a_at) / RFU CDKN2B (11736163_a_at) / Fold change /veh CDKN2B (11736163_a_at) / RFU PRF1 (11729649_at) / Fold change /veh PRF1 (11729649_at) / RFU, ZNF638 /// ZNF638-IT1 / Fold change vs veh, ZNF638 /// ZNF638-IT1 / RFU, PANK3 / Fold change vs veh, PANK3 / RFU, SH3YL1 / Fold change vs veh, SH3YL1 / RFU, ZEB2 / Fold change vs veh, ZEB2 / RFU, NRIP1 / Fold change vs veh, NRIP1 / RFU, PTTG1IP / Fold change vs veh, PTTG1IP / RFU, CAPN2 / Fold change vs veh, CAPN2 / RFU, MED14 / Fold change vs veh, MED14 / RFU, SNORA58 / Fold change vs veh, SNORA58 / RFU, C1orf63 / Fold change vs veh, C1orf63 / RFU, LRRFIP1 / Fold change vs veh, LRRFIP1 / RFU, NDUFAF7 / Fold change vs veh, NDUFAF7 / RFU, SLC12A2 / Fold change vs veh, SLC12A2 / RFU, IBTK / Fold change vs veh, IBTK / RFU, ESF1 / Fold change vs veh, ESF1 / Fold change vs veh, TMEM50B / RFU, TAOK1 / Fold change vs veh, TAOK1 / RFU, ACBD3 / Fold change vs veh, ACBD3 / RFU, TMA16 / Fold change vs veh, TMA16 / RFU, RWDD3 / Fold change vs veh, RWDD3 / RFU, BCAT1 / Fold change vs veh, BCAT1 / RFU, EDEM3 / Fold change vs veh, EDEM3 / RFU, TMEM33 / Fold change vs veh, TMEM33 / RFU, WDR75 / Fold change vs veh, WDR75 / RFU, AHCTF1 / Fold change vs veh, AHCTF1 / RFU, TFRC / Fold change vs veh, TFRC / RFU, ZDHHC17 / Fold change vs veh, ZDHHC17 / RFU, NOM1 / Fold change vs veh, NOM1 / RFU, ARL8B / Fold change vs veh, ARL8B / RFU, ZBTB11 / Fold change vs veh, ZBTB11 / RFU, TAMM41 / Fold change vs veh, TAMM41 / RFU, KIAA1704 /// LOC100996395 / Fold change vs veh, KIAA1704 /// LOC100996395 / RFU, ING1 / Fold change vs veh, ING1 / RFU, TRMT61B / Fold change vs veh, TRMT61B / RFU, FUBP3 / Fold change vs veh, FUBP3 / RFU, TP53 / Fold change vs veh, TP53 / RFU, TNKS2 / Fold change vs veh, TNKS2 / RFU, ZFP14 / Fold change vs veh, ZFP14 / RFU, ACTR2 / Fold change vs veh, ACTR2 / RFU, PPP3R1 / Fold change vs veh, PPP3R1 / RFU, PIK3R1 / Fold change vs veh, PIK3R1 / RFU, HNRNPA1 / Fold change vs veh, HNRNPA1 / RFU, RNF170 / Fold change vs veh, RNF170 / RFU, ZNF28 / Fold change vs veh, ZNF28 / RFU, RNGTT / Fold change vs veh, RNGTT / RFU, OGT / Fold change vs veh, OGT / RFU, BRD1 / Fold change vs veh, BRD1 / RFU, MARS / Fold change vs veh, MARS / RFU, ZNF655 / Fold change vs veh, ZNF655 / RFU, FAHD1 / Fold change vs veh, FAHD1 / RFU, BDP1 / Fold change vs veh, BDP1 / RFU, LRRCC1 / Fold change vs veh, LRRCC1 / RFU, ARID1A / Fold change vs veh, ARID1A / RFU, ZNF146 / Fold change vs veh, ZNF146 / RFU, ZNF330 / Fold change vs veh, ZNF330 / RFU, GPN3 / Fold change vs veh, GPN3 / RFU, C9orf123 / Fold change vs veh, C9orf123 / RFU, N4BP2L2 / Fold change vs veh, N4BP2L2 / RFU, ARFIP1 / Fold change vs veh, ARFIP1 / RFU, FAM179B / Fold change vs veh, FAM179B / RFU, BCL10 / Fold change vs veh, BCL10 / RFU, UHRF1BP1L / Fold change vs veh, UHRF1BP1L / RFU, BET1 / Fold change vs veh, BET1 / RFU, CNOT2 / Fold change vs veh, CNOT2 / RFU, ZNF268 / Fold change vs veh, ZNF268 / Fold change vs veh, ZNF507 / RFU, DGCR2 / Fold change vs veh, DGCR2 / RFU, WDSUB1 / Fold change vs veh, WDSUB1 / Fold change vs veh, HSP90B1 /// MIR3652 / RFU, ADSS / Fold change vs veh, ADSS / RFU, GK / Fold change vs veh, GK / RFU, ZNF148 / Fold change vs veh, ZNF148 / RFU, TAF9 / Fold change vs veh, TAF9 / RFU, SLC1A5 / Fold change vs veh, SLC1A5 / RFU, SLMO2 / Fold change vs veh, SLMO2 / RFU, ABCC4 / Fold change vs veh, ABCC4 / RFU, LOC101060439 /// RAP1B / Fold change vs veh, LOC101060439 /// RAP1B / RFU, RFX7 / Fold change vs veh, RFX7 / RFU, GTPBP10 / Fold change vs veh, GTPBP10 / RFU, CNEP1R1 / Fold change vs veh, CNEP1R1 / RFU, BIVM-ERCC5 /// ERCC5 / Fold change vs veh, BIVM-ERCC5 /// ERCC5 / RFU, ILF3 / Fold change vs veh, ILF3 / RFU 11762660_at / Fold change /veh 11762660_at / RFU VCAN (11757783_s_at) / Fold change /veh VCAN (11757783_s_at) / RFU DDX43 (11728927_at) / Fold change /veh DDX43 (11728927_at) / RFU KRT8 (11758188_x_at) / Fold change /veh KRT8 (11758188_x_at) / RFU NKD1 (11759106_at) / Fold change /veh NKD1 (11759106_at) / RFU SRD5A1 (11742802_a_at) / Fold change /veh SRD5A1 (11742802_a_at) / RFU TPSAB1 /// TPSB2 (11721975_s_at) / Fold change /veh TPSAB1 /// TPSB2 (11721975_s_at) / RFU GSTM3 (11746129_a_at) / Fold change /veh GSTM3 (11746129_a_at) / RFU IL23R (11737362_x_at) / Fold change /veh IL23R (11737362_x_at) / RFU TMEM51 (11727254_a_at) / Fold change /veh TMEM51 (11727254_a_at) / RFU PIWIL2 (11732686_x_at) / Fold change /veh PIWIL2 (11732686_x_at) / RFU ORM1 (11744905_x_at) / Fold change /veh ORM1 (11744905_x_at) / RFU CCDC152 (11743942_at) / Fold change /veh CCDC152 (11743942_at) / RFU ECM1 (11717891_a_at) / Fold change /veh ECM1 (11717891_a_at) / RFU IL23R (11748794_a_at) / Fold change /veh IL23R (11748794_a_at) / RFU TNFAIP8L3 (11732012_x_at) / Fold change /veh TNFAIP8L3 (11732012_x_at) / RFU MBOAT4 (11741988_at) / Fold change /veh MBOAT4 (11741988_at) / RFU 11764193_at / Fold change /veh 11764193_at / RFU TMEM53 (11763286_at) / Fold change /veh TMEM53 (11763286_at) / RFU MAGEB2 (11727129_at) / Fold change /veh MAGEB2 (11727129_at) / RFU TMEM200A (11744735_a_at) / Fold change /veh TMEM200A (11744735_a_at) / RFU CCDC152 (11751479_a_at) / Fold change /veh CCDC152 (11751479_a_at) / RFU FAM211A (11726209_a_at) / Fold change /veh FAM211A (11726209_a_at) / RFU RGS16 (11746705_a_at) / Fold change /veh RGS16 (11746705_a_at) / RFU VCAN (11755009_s_at) / Fold change /veh VCAN (11755009_s_at) / RFU RHOB (11743442_s_at) / Fold change /veh RHOB (11743442_s_at) / RFU RGS16 (11720943_a_at) / Fold change /veh RGS16 (11720943_a_at) / RFU RGS16 (11720944_at) / Fold change /veh RGS16 (11720944_at) / RFU, VPS4B / Fold change vs veh, VPS4B / RFU, CREB1 / Fold change vs veh, CREB1 / RFU, DNAJC13 / Fold change vs veh, DNAJC13 / RFU, GNAQ / Fold change vs veh, GNAQ / RFU, CDK5R1 / Fold change vs veh, CDK5R1 / RFU, ZRANB3 / Fold change vs veh, ZRANB3 / RFU, CUL4A / Fold change vs veh, CUL4A / RFU, CCNY / Fold change vs veh, CCNY / RFU, UFL1 / Fold change vs veh, UFL1 / RFU, COG3 / Fold change vs veh, COG3 / RFU, DIAPH2 / Fold change vs veh, DIAPH2 / RFU, SKA2 / Fold change vs veh, SKA2 / RFU, AFF3 / Fold change vs veh, AFF3 / RFU, LMF1 / Fold change vs veh, LMF1 / RFU, IPO11 / Fold change vs veh, IPO11 / RFU, DFFB / Fold change vs veh, DFFB / RFU, FOXP1 / Fold change vs veh, FOXP1 / RFU, CARD8 / Fold change vs veh, CARD8 / RFU, STRN3 / Fold change vs veh, STRN3 / RFU, ADK / Fold change vs veh, ADK / RFU, RASSF2 / Fold change vs veh, RASSF2 / RFU, WIPF1 / Fold change vs veh, WIPF1 / RFU, LARP1B / Fold change vs veh, LARP1B / RFU, RASA1 / Fold change vs veh, RASA1 / RFU, RB1 / Fold change vs veh, RB1 / RFU, PPFIA1 / Fold change vs veh, PPFIA1 / RFU, MAT2A / Fold change vs veh, MAT2A / RFU, CCT5 / Fold change vs veh, CCT5 / RFU, WDR92 / Fold change vs veh, WDR92 / RFU, CUX1 / Fold change vs veh, CUX1 / RFU, TTC7A / Fold change vs veh, TTC7A / RFU, TMEM135 / Fold change vs veh, TMEM135 / RFU, DEPTOR / Fold change vs veh, DEPTOR / RFU, CPM / Fold change vs veh, CPM / RFU, DNAJB6 / Fold change vs veh, DNAJB6 / RFU, CACNA2D3 / Fold change vs veh, CACNA2D3 / RFU, DTX4 / Fold change vs veh, DTX4 / RFU, TFCP2 / Fold change vs veh, TFCP2 / RFU, GMCL1 /// GMCL1P1 / Fold change vs veh, GMCL1 /// GMCL1P1 / RFU, AEBP2 / Fold change vs veh, AEBP2 / RFU, SNHG1 /// SNORD22 /// SNORD25 /// SNORD26 /// SNORD27 /// SNORD28 /// SNORD29 /// SNORD31 / Fold change vs veh, SNHG1 /// SNORD22 /// SNORD25 /// SNORD26 /// SNORD27 /// SNORD28 /// SNORD29 /// SNORD31 / Fold change (Aza/veh), C12orf56 (ProbeSet 11735607_a_at) / Fold change (ACY-1035/veh), C12orf56 (ProbeSet 11735607_a_at) / Fold change (Aza/veh), FGFR1OP (ProbeSet 11751329_s_at) / Fold change (ACY-1035/veh), FGFR1OP (ProbeSet 11751329_s_at) / Fold change (Aza/veh), VPS36 (ProbeSet 11739960_a_at) / Fold change (ACY-1035/veh), VPS36 (ProbeSet 11739960_a_at) / RFU SYPL1 (11715823_x_at) / Fold change /veh SYPL1 (11715823_x_at) / RFU IGFBP7 (11715501_s_at) / Fold change /veh IGFBP7 (11715501_s_at) / RFU REEP3 (11722064_at) / Fold change /veh REEP3 (11722064_at) / RFU IGLL1 (11728026_x_at) / Fold change /veh IGLL1 (11728026_x_at): dose or concentration left out as unconfirmed
Conditions: ProbeSet 11732306_x_at; LIST D

## Nc1ccc(-c2cccs2)cc1NC(=O)c1ccc2c(c1)cc(C1CC1)n2CCN1CCOCC1 [ACY-1035]
  Fold change vs veh, CREB1: 0.87

Reference: paper PMC5218480 (PLoS ONE, 2017)
